Experimental data as given in publication PMC11229374, “Unlocking the potential of protein-derived peptides to target G-quadruplex DNA: from recognition to anticancer activity” (Nucleic Acids Research, 2024).
pKd: −log10 of the molar value. Where “and” joins values, the source holds several entries; their conditions need not be identical. Identical values can stand only once.

Experiments:
LWDLN1 G4 = test: Microscale thermophoresis (MST) binding to LWDLN1 G4; conditions: 25°C, 20 nM FITC-labelled peptide, same buffer, n.d. = not determined due to undetectable binding
Protocol: (§1) MST experiments were conducted using a Monolith NT.115 instrument (NanoTemper Technologies, Munich, Germany) at 25°C with medium MST power settings. […] DNA samples were also diluted using the same buffer supplemented with 0.1% Tween. During MST experiments, the concentration of the labelled peptide was kept constant at 20 nM, while a serial dilution of the investigated DNA molecules (ranging from 10 or 20 μM) was prepared and mixed with the peptide solution in a 1:1 volume ratio. All the samples, with a final concentration of 5% DMSO, were loaded into standard capillaries (NanoTemper Technologies) for MST measurements. Data analysis was carried out using the MO.Affinity Analysis (v2.3) software provided with the instrument.

c-KIT1 G4 = test: Microscale thermophoresis (MST) binding to c-KIT1 G4; design: species or system human; conditions: 25°C, 20 nM FITC-labelled peptide, DNA serial dilution, 5 mM KH2PO4/K2HPO4 pH 7.0, 20 mM KCl, 0.1% Tween, 5% DMSO
Protocol: as §1

HER2 G4 [1] = test: Microscale thermophoresis (MST) binding to HER2 G4; design: species or system human; conditions: 25°C, 20 nM FITC-labelled peptide, DNA serial dilution, 5 mM KH2PO4/K2HPO4 pH 7.0, 20 mM KCl, 0.1% Tween, 5% DMSO
Protocol: as §1

BCL-2 G4 = test: Microscale thermophoresis (MST) binding to BCL-2 G4; design: species or system human; conditions: 25°C, 20 nM FITC-labelled peptide, DNA serial dilution, 5 mM KH2PO4/K2HPO4 pH 7.0, 20 mM KCl, 0.1% Tween, 5% DMSO
Protocol: as §1

HER2 G4 [2] = test: Isothermal titration calorimetry (ITC) with HER2 G4; format: binding, human; conditions: ITC at 25°C, triplicate
Protocol: ITC experiments were conducted at 25°C using a nano-ITC Low Volume calorimeter (TA instruments, Lindon, UT, USA). DNA and peptide solutions were prepared using the same batch of buffer (5 mM KH2PO4/K2HPO4 buffer containing 20 mM KCl, pH 7.0) to prevent differences in buffer composition and pH. Each titration consisted of 25 injections of a 2 μl peptide solution (280–400 μM) sequentially injected using a computer-controlled 50 μl syringe, into the calorimetric vessel (190 μl) containing the oligonucleotide (16–20 μM). A spacing of 300 s between each injection was applied to allow the system to reach the equilibrium. The heat generated by peptide dilution was assessed in a control experiment by injecting the peptide solution into the buffer (Supplementary Figure S30). All measurements were performed in triplicate. Subsequently, the interaction heat for each injection was calculated considering the correction for the heat of peptide dilution. The corrected heat values were plotted as a function of the molar ratio to provide binding isotherms. […] The equilibrium dissociation constant (Kd), Gibbs free-energy change and entropy change were determined using the following relationships: Kd = 1/Ka, ΔG° = -RT ln Ka (R = 8.314 J mol^−1 K^−1, T = 298.15 K), and TΔS° = ΔH° – ΔG°.

HT-FANA G4 = test: Microscale thermophoresis (MST) binding to HT-FANA G4; design: species or system human; conditions: 25°C, 20 nM FITC-labelled peptide, DNA serial dilution, 5 mM KH2PO4/K2HPO4 pH 7.0, 20 mM KCl, 0.1% Tween, 5% DMSO
Protocol: as §1

VEGFR-17T G4 = test: Microscale thermophoresis (MST) binding to VEGFR-17T G4; design: species or system human; conditions: 25°C, 20 nM FITC-labelled peptide, same buffer, n.d. = not determined due to undetectable binding
Protocol: as §1

HT1 G4 = test: Microscale thermophoresis (MST) binding to HT1 G4; design: species or system human; conditions: 25°C, 20 nM FITC-labelled peptide, DNA serial dilution, 5 mM KH2PO4/K2HPO4 pH 7.0, 20 mM KCl, 0.1% Tween, 5% DMSO
Protocol: as §1

c-MYC G4 = test: Microscale thermophoresis (MST) binding to c-MYC G4; design: species or system human; conditions: 25°C, 20 nM FITC-labelled peptide, DNA serial dilution, 5 mM KH2PO4/K2HPO4 pH 7.0, 20 mM KCl, 0.1% Tween, 5% DMSO
Protocol: as §1

c-KIT2 G4 [3] = test: CD melting, thermal stabilization of c-KIT2 G4; format: binding, human; conditions: CD melting at 264 nm, 5 mM KH2PO4/K2HPO4 pH 7.0, 20 mM KCl, average of three
Excerpt: The buffer baseline was subtracted from each spectrum.

c-KIT2 G4 [4] = test: Isothermal titration calorimetry (ITC) with c-KIT2 G4; format: binding, human; conditions: ITC at 25°C, triplicate
Protocol: ITC experiments were conducted at 25°C using a nano-ITC Low Volume calorimeter (TA instruments, Lindon, UT, USA). DNA and peptide solutions were prepared using the same batch of buffer (5 mM KH2PO4/K2HPO4 buffer containing 20 mM KCl, pH 7.0) to prevent differences in buffer composition and pH. Each titration consisted of 25 injections of a 2 μl peptide solution (280–400 μM) sequentially injected using a computer-controlled 50 μl syringe, into the calorimetric vessel (190 μl) containing the oligonucleotide (16–20 μM). A spacing of 300 s between each injection was applied to allow the system to reach the equilibrium. The heat generated by peptide dilution was assessed in a control experiment by injecting the peptide solution into the buffer (Supplementary Figure S30). All measurements were performed in triplicate. Subsequently, the interaction heat for each injection was calculated considering the correction for the heat of peptide dilution. The corrected heat values were plotted as a function of the molar ratio to provide binding isotherms. The isotherms were fitted with a multiple-sites binding model using the NanoAnalyze software (TA instruments) provided with the instrument. This analysis provided the equilibrium binding constant (Ka), binding enthalpy (ΔH°), and stoichiometry of interaction (n). The equilibrium dissociation constant (Kd), Gibbs free-energy change and entropy change were determined using the following relationships: Kd = 1/Ka, ΔG° = -RT ln Ka (R = 8.314 J mol^−1 K^−1, T = 298.15 K), and TΔS° = ΔH° – ΔG°.

c-KIT2 G4 [5] = test: Microscale thermophoresis (MST) binding to c-KIT2 G4; design: species or system human; conditions: 25°C, 20 nM FITC-labelled peptide, DNA serial dilution, 5 mM KH2PO4/K2HPO4 pH 7.0, 20 mM KCl, 0.1% Tween, 5% DMSO
Protocol: as §1

U2OS cells = test: Viability assay (crystal violet), U2OS; format: cell-based; conditions: 72 h treatment, unconjugated peptides
Protocol: U2OS, HCT116 and MDA-MB-231 cells were purchased from the ATCC and grown in Dulbecco modified Eagle's medium (DMEM; EuroClone, Milan, Italy; ECM0728L) supplemented with 10% Fetal Bovine Serum (FBS, ThermoFisher Scientific/Gibco, Waltham, MA, USA; 10270-106), 2 mM L-glutamine and antibiotics in a humidified incubator at 37°C with 5% CO2 and atmospheric O2 concentration. Cell lines were authenticated and tested to be mycoplasma-free.
U2OS, HCT116, and MDA-MB-231 cells were seeded in 24-well plates at a density of 1 × 10^4, 20 × 10^3 and 12 × 10^3 for each well, respectively. After 24 h, cells were treated with the indicated peptides and incubated at 37°C for additional 72 h. Upon treatment completion, cell medium was removed, the wells were washed twice in phosphate-buffered saline (PBS) and fixed with 4% formaldehyde for 15 min at room temperature (RT). After washing, 500 μl of crystal violet staining solution (Sigma-Aldrich, St. Louis, MO, USA) was added to each well and incubated for 30 min at RT. Finally, the plates were rinsed twice with water, air-dried and cell pellets were dissolved in 400 μl of a 10% aqueous solution of acetic acid. In total, 200 μl of each sample was transferred to a 96-well plate, and the optical density was measured at 570 nm (OD570) with an ELISA reader (Thermo Scientific, Waltham, MA, USA). The average absorbance in each condition was used to calculate the viability expressed as a percentage of treated vs untreated conditions (CTR).

For “Ac-NHTGNSIRHRFRVYLSKRL-NH2 [Myb^397–415]”, the “Kd for binding to LWDLN1 G4” value (LWDLN1 G4) was “negligible binding”, the pKd (c-KIT1 G4) was 6.47 and the pKd (HER2 G4 [1]) was 6.89. For the same substance, the pKd (BCL-2 G4) was 6.55, the Ka (HER2 G4 [2]; HER2 G4 16–20 μM, peptide 280–400 μM, 5 mM KH2PO4/K2HPO4, 20 mM KCl, pH 7.0) was 1.0 × 10^7 M^−1 and 1.0 (±0.1) ×10^7 M^−1 and the pKd (HER2 G4 [2]; HER2 G4, Kd = 1/Ka) was 7.00. For the same substance, the pKd (HT-FANA G4) was 6.85, the “Kd for binding to VEGFR-17T G4” value (VEGFR-17T G4) was “negligible binding” and the pKd (HT1 G4) was 6.05. For the same substance, the pKd (c-MYC G4) was 6.37, the “ΔT1/2 of c-KIT2 G4” value (c-KIT2 G4 [3]; 2 μM DNA, 1 mol equiv peptide, 1°C/min, T1/2 DNA alone 59.5°C) was 11.2 °C and 11.2 (±0.2) °C and the “ΔT1/2 of c-KIT2 G4” value (c-KIT2 G4 [3]; 2 mol equiv of peptide with respect to G4, 2 μM DNA, T1/2 c-KIT2 alone 59.5°C) was 17.3 (±0.2) °C. The Ka (c-KIT2 G4 [4]; c-KIT2 G4 16–20 μM, peptide 280–400 μM, 5 mM KH2PO4/K2HPO4, 20 mM KCl, pH 7.0) was 5.0 × 10^6 M^−1 and 5.0 (±0.3) ×10^6 M^−1, the pKd (c-KIT2 G4 [4]; c-KIT2 G4, Kd = 1/Ka) was 6.70 and the pKd (c-KIT2 G4 [5]) was 6.89. The “Impact on cancer cell viability, peptides in native form” value (U2OS cells) was “unable to significantly impact cancer cells viability”.
